Reference: patent US20250282754A1, “BICYCLIC COMPOUNDS AND THEIR USE AS PEST CONTROL AGENTS” (Pl Industries Ltd., priority 2022, published 2025)

System: Bemisia tabaci
Experiment: Bemisia tabaci leaf dip test (brinjal leaves, whitefly adults)
Format: in vivo
Conditions: foliar, dead and moribund whitefly adults 72 h after release, compared to untreated controls, read-out: percent mortality
Experimental: The leaf dip method was used for testing, wherein the required quantity of the compound was weighed and dissolved in a tube containing a solvent solution. The tube was put on a vortex at 2000 rpm for proper mixing and then diluted with a 0.01% Triton-X solution to the desired test concentration. Brinjal leaves were dipped in the compound solution for 10 seconds; shade dried for 20 min and then placed, with the abaxial side of the leaf up, on 4 ml of a solidified 1% agar-agar solution in respective container caps. Known numbers of freshly emerged whitefly adults were collected, using a modified aspirator, and released into a perforated container in which the cap containing the treated leaf was placed. The containers were kept in a plant growth chamber at a temperature of 25° C. and relative humidity of 70%. Observations on dead, moribund and alive adults were recorded 72 h after the release. Percent mortality was calculated by combining dead and moribund adults and comparing the result to the one of the untreated controls. The compounds 1 9 11 18 25 28 29 30 31

SMILES | mortality at 300 ppm
CC(C)S(=O)(=Nc1ccc2nn(-c3cncnc3)cc2c1)c1ccc(F)cc1 (stereo not shown) [Compound 18] | ≥ 70%
CC(C)S(=O)(=Nc1ccc2nn(-c3cncnc3)cc2c1)C(C)C [Compound 31] | ≥ 70%
CCS(=O)(=Nc1ccc2nn(-c3cncnc3)cc2c1)c1ccccc1 (stereo not shown) [Compound 34] | ≥ 70%
CCS(=O)(CC)=Nc1ccc2nn(-c3ccnnc3)cc2c1 [Compound 43] | ≥ 70%
CCS(=O)(=Nc1ccc2nn(-c3ccnnc3)cc2c1)C(C)C (stereo not shown) [Compound 48] | ≥ 70%
O=S(CCC(F)(F)F)(=Nc1ccc2nn(-c3cncc(F)c3)cc2c1)c1ccccc1 (stereo not shown) [Compound 65] | ≥ 70%
COc1ccc(S(=O)(CCC(F)(F)F)=Nc2ccc3nn(-c4cncc(F)c4)cc3c2)cc1 (stereo not shown) [Compound 66] | ≥ 70%
O=S(CCC(F)(F)F)(=Nc1ccc2nn(-c3ccnnc3)cc2c1)c1ccccc1 (stereo not shown) [Compound 68] | ≥ 70%
CC(C)S(C)(=O)=Nc1cccc2nn(-c3cccnc3)cc12 (stereo not shown) [Compound 74] | ≥ 70%
CCCS(=O)(CCC)=Nc1cccc2nn(-c3cncc(F)c3)cc12 [Compound 77] | ≥ 70%
CC(C)CS(=O)(CC(C)C)=Nc1ccc2nn(-c3cccnc3)cc2c1 [Compound 79] | ≥ 70%
CC(C)S(=O)(CCC(F)(F)F)=Nc1ccc2nn(-c3cncnc3)cc2c1 (stereo not shown) [Compound 101, isopropyl((2-(pyrimidin-5-yl)-2H-indazol-5-yl)imino)(3,3,3-trifluoropropyl)-λ^6-sulfanone] | ≥ 70%
CCS(=O)(=Nc1ccc(F)c2nn(-c3cccnc3)cc12)C(C)C (stereo not shown) [Compound 108] | ≥ 70%
CCS(C)(=O)=Nc1ccc(F)c2nn(-c3cccnc3)cc12 (stereo not shown) [Compound 109] | ≥ 70%
COc1nn(-c2ccc3nn(-c4ccc(C)nc4C)cc3c2)c(=O)n1C [Compound 116, 2-(2-(2,6-dimethylpyridin-3-yl)-2H-indazol-5-yl)-5-methoxy-4-methyl-2,4-dihydro-3H-1,2,4-triazol-3-one] | ≥ 70%
COc1nn(-c2ccc3nn(-c4cccnc4)cc3c2)c(=O)n1Cc1ccccc1F [Compound 122, 4-(2-fluorobenzyl)-5-methoxy-2-(2-(pyridin-3-yl)-2H-indazol-5-yl)-2,4-dihydro-3H-1,2,4-triazol-3-one] | ≥ 70%
CCN(C)S(=O)(=Nc1ccc2nn(-c3cncnc3)cc2c1)C1CC1 (stereo not shown) [Compound 135, N-ethyl-N-methyl-N′-(2-(pyrimidin-5-yl)-2H-indazol-5-yl)cyclopropanesulfonimidamide] | ≥ 70%
CCCS(=O)(CCC)=Nc1cnc2nn(-c3cncnc3)cc2c1 [Compound 184] | ≥ 70%
CC(C)S(C)(=O)=Nc1ccc2nn(-c3cncnc3)cc2n1 (stereo not shown) [Compound 213] | ≥ 70%
CCCCS(=O)(CC)=Nc1ccc2nn(-c3cccnc3)cc2n1 (stereo not shown) [Compound 214] | ≥ 70%
CCS(=O)(CC)=Nc1ccc2nn(-c3cncnc3)cc2n1 [Compound 219] | ≥ 70%
CCCCS(=O)(CC)=Nc1ccc2nn(-c3cncnc3)cc2n1 (stereo not shown) [Compound 220] | ≥ 70%
CC(C)CS(=O)(CC(C)C)=Nc1ccc2nn(-c3cncnc3)cc2n1 [Compound 221] | ≥ 70%
CS(=O)(=Nc1ccc2nn(-c3cncnc3)cc2n1)C1CCCCC1 (stereo not shown) [Compound 223] | ≥ 70%
CS(C)(=O)=NC(=O)c1ccc2nn(-c3cncnc3)cc2c1 [Compound 228, N-(dimethyl(oxo)-λ^6-sulfaneylidene)-2-(pyrimidin-5-yl)-2H-indazole-5-carboxamide] | ≥ 70%

SMILES | mortality at 300 ppm
CCS(=O)(CC)=NC(=O)c1ccc2nn(-c3cncnc3)cc2c1 [Compound 231, N-(diethyl(oxo)-λ^6-sulfaneylidene)-2-(pyrimidin-5-yl)-2H-indazole-5-carboxamide] | ≥ 70%
CCS(=O)(=Nc1ccc2nn(-c3cncnc3)cc2n1)C(C)C (stereo not shown) [Compound 241] | ≥ 70%
CCCS(=O)(CCC)=Nc1cc2cn(-c3cncnc3)nc2cn1 [Compound 278] | ≥ 70%
CC(C)S(=O)(CC1CCC1)=Nc1ccc2nn(-c3cccnc3)cc2n1 (stereo not shown) [Compound 289] | ≥ 70%
CC(C)(C)S(C)(=O)=Nc1ccc2nn(-c3cncc(F)c3)cc2c1 (stereo not shown) [Compound 293] | ≥ 70%
CC(C)CCS(=O)(=Nc1ccc2nn(-c3cncnc3)cc2c1)C(C)C (stereo not shown) [Compound 294] | ≥ 70%
CCS(=O)(CC)=Nc1cc(C(F)(F)F)c2nn(-c3cccnc3)cc2c1 [Compound 296] | ≥ 70%
CCS(C)(=O)=Nc1ccc2nn(-c3cncc(F)c3)cc2n1 (stereo not shown) [Compound 307] | ≥ 70%
CCS(=O)(CC)=Nc1ccc2nn(-c3cncc(F)c3)cc2n1 [Compound 308] | ≥ 70%
CCCS(C)(=O)=Nc1ccc2nn(-c3cncc(F)c3)cc2n1 (stereo not shown) [Compound 309] | ≥ 70%
CCCS(=O)(CCC)=Nc1ccc2nn(-c3cncc(F)c3)cc2n1 [Compound 310] | ≥ 70%
CC(C)S(C)(=O)=Nc1ccc2nn(-c3cncc(F)c3)cc2n1 (stereo not shown) [Compound 311] | ≥ 70%
CC(C)(C)S(C)(=O)=Nc1ccc2nn(-c3cncc(F)c3)cc2n1 (stereo not shown) [Compound 313] | ≥ 70%
COc1nn(-c2ccc3nn(-c4cccnc4)cc3c2)c(=O)n1Cc1ccc(Cl)c(Cl)c1 [Compound 368, 4-(3,4-dichlorobenzyl)-5-methoxy-2-(2-(pyridin-3-yl)-2H-indazol-5-yl)-2,4-dihydro-3H-1,2,4-triazol-3-one] | ≥ 70%
COc1nn(-c2ccc3nn(-c4cccnc4)cc3c2)c(=O)n1Cc1ccc(Cl)cc1Cl [Compound 369, 4-(2,4-dichlorobenzyl)-5-methoxy-2-(2-(pyridin-3-yl)-2H-indazol-5-yl)-2,4-dihydro-3H-1,2,4-triazol-3-one] | ≥ 70%
CN=S(=O)(c1ccc2nn(-c3cccnc3)cc2c1)C(C)C (stereo not shown) [Compound 408] | ≥ 70%
CC(C)S(=N)(=O)c1ccc2nn(-c3cncnc3)cc2c1 (stereo not shown) [Compound 410, imino(isopropyl)(2-(pyrimidin-5-yl)-2H-indazol-5-yl)-λ^6-sulfanone] | ≥ 70%
CC(=O)N=S(=O)(c1ccc2nn(-c3cncnc3)cc2c1)C(C)C (stereo not shown) [Compound 418] | ≥ 70%
CC(C)S(=O)(=NC(=O)C(F)F)c1ccc2nn(-c3cncnc3)cc2c1 (stereo not shown) [Compound 421] | ≥ 70%
CCS(=O)(=Nc1cncc(C(F)(F)F)n1)c1ccc2nn(-c3cncc(F)c3)cc2c1 (stereo not shown) [Compound 463] | ≥ 70%
N=S(=O)(CC1CCC1)c1ccc2nn(-c3cncnc3)cc2c1 (stereo not shown) [Compound 465, (cyclobutylmethyl)(imino)(2-(pyrimidin-5-yl)-2H-indazol-5-yl)-λ^6-sulfanone] | ≥ 70%
CCN=S(=O)(CC1CCC1)c1ccc2nn(-c3cncnc3)cc2c1 (stereo not shown) [Compound 466] | ≥ 70%
CC(=O)N=S(=O)(CC1CCC1)c1ccc2nn(-c3cncnc3)cc2c1 (stereo not shown) [Compound 467] | ≥ 70%
N=S(=O)(c1ccc2nn(-c3cccnc3)cc2c1)C1CCC1 (stereo not shown) [Compound 554, cyclobutyl(imino)(2-(pyridin-3-yl)-2H-indazol-5-yl)-λ^6-sulfanone] | ≥ 70%
